From patent US4318917A, “Antiinflammatory 2,3-diaryl-5-[2,2,2-trifluoro-1-(trifluoromethyl]ethyl-1H-pyrroles” (E. I. Du Pont de Nemours and Company, priority 1981, dated 1982)

Tested on: adjuvant-induced arthritis in rats
Experiment: Established Adjuvant-Induced Arthritis in Rats (paw volume)
Format: in vivo, rat (Charles River Lewis male rats)
Conditions: oral gavage, 7 daily doses; for ED50: Rattus norvegicus, uninjected left hind paw, established adjuvant arthritis, read-out: Adjuvant Arthritis ED50 (ED50% decrease from control paw volume)
Method: A procedure for detecting and comparing the antiinflammatory activity of compounds in this series and standard drugs for which there is a good correlation with human efficacy is the adjuvant-induced arthritis test in rats.
The test procedure employed for determining antiinflammatory activity is described below.
Established Adjuvant-Induced Arthritis in Rats
Charles River Lewis male rats (130-150 grams) are injected subcutaneously in plantar area of the right hind paw with 0.1 ml of adjuvant (Difco heat-killed, lyophilized Mycobacterium butyricum suspended in mineral oil 5 mg/ml). 20 Non-arthritic controls are injected with mineral oil. The animals are held for 2 weeks to allow development of arthritis. Paw volumes (uninjected, left hind paw) are measured and the adjuvant injected rats are culled and distributed to treatment groups of 10 of equal disease severity. Non-arthritic controls are distributed to 2 groups of 10. The rats are given oral doses of compound or PVA-Acacia (Polyvinyl Alcohol 1%, Gum Acacia, U.S.P. 5%, Methylparaben 0.5%) (10 ml/kg) by gavage on that day and on the 6 following days. One day after the last dose the paw volumes (uninjected, left hind paw) are measured using a Ugo Basile Volume Differential Meter Model 7101. [formula]
% Decrease from Control Mean Paw Volume.
Dose-response regression lines of the % decrease are plotted on semi-log paper by visual fit and the ED50% decrease from control paw volume is determined by inspection.

Row | Structure (SMILES) | ED50 | also measured
1 | CSc1ccc(-c2[nH]c(C(C(F)(F)F)C(F)(F)F)cc2-c2ccc(F)cc2)cc1 [Example 6] | 2.5 mg/kg | –
2 | Fc1ccc(C2=CC(=C(C(F)(F)F)C(F)(F)F)N=C2c2ccc(Br)cc2)cc1 [Example 18, 5-(4-bromophenyl)-4-(4-fluorophenyl)-2-[2,2,2-trifluoro-1-(trifluoromethyl)ethylidene]-2H-pyrrole] | – | percent reduction in paw volume at the indicated dose (at 25 mg/kg): 16%
3 | FC(F)(F)C(c1cc(-c2ccccc2)c(-c2ccccc2)[nH]1)C(F)(F)F [Example 1, 2,3-Diphenyl-5-[2,2,2-trifluoro-1-(trifluoromethyl)-ethyl]-1H-pyrrole] | 11 mg/kg | –
4 | Fc1ccc(-c2cc(C(C(F)(F)F)C(F)(F)F)[nH]c2-c2ccc(F)cc2)cc1 [Example 2, 2,3-Bis(4-fluorophenyl)-5-[2,2,2-trifluoro-1-(trifluoromethyl)ethyl]-1H-pyrrole] | 4 mg/kg | –
5 | Fc1ccc(C2=CC(=C(C(F)(F)F)C(F)(F)F)N=C2c2ccc(F)cc2)cc1 [Example 17, 4,5-Bis(4-fluorophenyl)-2-[2,2,2-trifluoro-1-(trifluoromethyl)ethylidene]-2H-pyrrole] | 33 mg/kg | –
6 | FC(F)(F)C(c1cc(-c2ccc(Cl)cc2)c(-c2ccc(Cl)cc2)[nH]1)C(F)(F)F [Example 3] | 15 mg/kg | –
7 | Fc1ccc(-c2cc(C(C(F)(F)F)C(F)(F)F)[nH]c2-c2ccc(Br)cc2)cc1 [Example 4] | 3.9 mg/kg | –
8 | Fc1ccc(-c2cc(C(C(F)(F)F)C(F)(F)F)[nH]c2-c2cccnc2)cc1 [Example 5] | – | percent reduction in paw volume at the indicated dose (at 5 mg/kg): 0%
